Reference: the supplement of paper PMC10307832

Assays:
Experiment in all cases: relative viability (nuclei count vs DMSO), 5 days (fraction); higher = more cells survive
[1] = compound: CC1=NC=CC(=C1)C2=CC=C(C=C2)CC(=O)NC3=CC=C(C=C3)C4=CN=CC=C4 [Wnt-C59] + Cc1nc(NC(=O)N2CCC[C@H]2C(N)=O)sc1-c1ccnc(C(C)(C)C(F)(F)F)c1 [Alpelisib] (partner 2 µM)
Method in brief: (§1)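 Lung cancer cell lines in 1536-well plates got either a single drug or a fixed anchor-drug dose together with five library-drug doses (not always all listed) in √10 steps, by pin tool, on the day after seeding. Nuclei were counted after 5 days, and relative viability is the treated-to-vehicle ratio of nuclei counts. Values are medians of duplicate plates.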

[2] = compound: CC1=NC=CC(=C1)C2=CC=C(C=C2)CC(=O)NC3=CC=C(C=C3)C4=CN=CC=C4 [Wnt-C59] + NC(=O)Nc1cc(-c2cccc(F)c2)sc1C(=O)N[C@H]1CCCNC1 [AZD7762] (partner 0.2 µM)
Method in brief: as §1

[3] = compound: CC1=NC=CC(=C1)C2=CC=C(C=C2)CC(=O)NC3=CC=C(C=C3)C4=CN=CC=C4 [Wnt-C59] + O=C(CCCCCCC(=O)Nc1ccccc1)NO [Vorinostat] (partner 1 µM)
Method in brief: as §1

[4] = compound: CS(=O)(=O)CCNCc1ccc(-c2ccc3ncnc(Nc4ccc(OCc5cccc(F)c5)c(Cl)c4)c3c2)o1 [Lapatinib] + C[C@@H](Oc1cc(-c2cnn(C3CCNCC3)c2)cnc1N)c1c(Cl)ccc(F)c1Cl [Crizotinib] (partner 1 µM)
Method in brief: as §1

Row | Cell Line | relative viability ([1]; first compound 0.001 µM) | relative viability ([1]; first compound 0.01 µM) | relative viability ([1]; first compound 0.03162 µM) | relative viability ([1]; first compound 0.1 µM) | relative viability ([2]; first compound 0.001 µM) | relative viability ([2]; first compound 0.01 µM) | relative viability ([2]; first compound 0.03162 µM) | relative viability ([2]; first compound 0.1 µM) | relative viability ([3]; first compound 0.001 µM) | relative viability ([3]; first compound 0.01 µM) | relative viability ([3]; first compound 0.03162 µM) | relative viability ([3]; first compound 0.1 µM) | relative viability ([4]; first compound 0.06325 µM) | relative viability ([4]; first compound 0.2 µM) | relative viability ([4]; first compound 0.6325 µM) | relative viability ([4]; first compound 2 µM) | relative viability ([4]; first compound 0.02 µM)
1 | NCI-H1734 | 0.807 | 0.68 | 0.703 | 0.726 | 0.589 | 0.517 | 0.641 | 0.543 | 0.76 | 0.822 | 0.833 | 0.816 | 0.481 | 0.737 | 0.669 | 0.663 | 
2 | NCI-H1666 | 0.874 | 0.895 | 0.974 | 0.942 | 0.95 | 0.819 | 0.82 | 0.857 | 0.964 | 1 | 0.913 | 1.05 | 1.05 | 0.847 | 0.842 | 0.357 | 0.787
3 | BEN | 1.11 | 0.993 | 1.37 | 0.957 | 0.823 | 0.623 | 0.761 | 0.856 | 0.581 | 0.523 | 0.675 | 0.579 | 0.672 | 1.06 | 0.828 | 0.747 | 0.826
4 | ChaGo-K-1 |  |  |  |  | 0.893 | 0.844 | 0.955 | 0.901 | 0.751 | 0.781 | 0.689 | 0.774 | 1.07 | 1.19 | 1.09 | 1.09 | 
5 | SK-MES-1 | 0.841 | 0.909 | 0.833 | 0.965 |  |  |  |  | 1.12 | 1.11 | 1.21 | 1.03 | 0.974 | 1.08 | 0.806 | 0.731 | 0.95
6 | NCI-H3122 | 0.836 | 0.784 | 0.872 | 0.716 | 1.03 | 0.949 | 1.05 | 0.973 | 1.05 | 1.05 | 0.989 | 0.971 | 0.224 | 0.27 | 0.268 | 0.274 | 0.277
7 | NCI-H1563 | 0.925 | 0.852 | 1.07 | 0.888 |  |  |  |  |  |  |  |  | 0.874 | 0.861 | 0.789 | 0.774 | 0.881
8 | CAL-12T | 1.25 | 1.32 | 1.31 | 1.1 | 0.595 | 0.588 | 0.505 | 0.631 | 0.808 | 0.82 | 0.975 | 0.805 | 0.59 | 0.575 | 0.57 | 0.326 | 0.593
9 | NCI-H1975 | 0.67 | 0.591 | 0.707 | 0.704 | 0.72 | 0.653 | 0.724 | 0.773 | 0.727 | 0.76 | 0.756 | 0.706 | 0.837 | 1.05 | 0.85 | 0.736 | 0.949
10 | NCI-H2009 | 1.15 | 1.16 | 1.14 | 1.18 |  |  |  |  | 0.722 | 0.679 | 0.758 | 0.712 | 1.05 | 1.05 | 1.03 | 0.959 | 1.09
11 | LC-2-ad | 0.824 | 0.846 | 0.953 | 0.778 | 0.851 | 0.829 | 0.882 | 0.865 | 0.699 | 0.714 | 0.742 | 0.688 | 0.487 | 0.473 | 0.436 | 0.375 | 
12 | NCI-H647 | 1.15 | 1.11 | 1.23 | 1 | 0.554 | 0.389 | 0.502 | 0.472 | 0.577 | 0.582 | 0.957 | 0.585 | 0.904 | 1.03 | 1.03 | 0.923 | 1.01
13 | HCC-78 | 0.298 | 0.336 | 0.333 | 0.363 | 0.59 | 0.653 | 0.688 | 0.624 | 0.439 | 0.407 | 0.476 | 0.484 | 0.236 | 0.315 | 0.297 | 0.229 | 
14 | Calu-6 | 0.898 | 0.945 | 1.15 | 0.938 |  |  |  |  |  |  |  |  | 0.801 | 0.909 | 0.763 | 0.753 | 0.846
15 | H3255 | 0.798 | 0.556 | 0.68 | 0.596 | 0.927 | 0.922 | 0.953 | 0.828 | 0.79 | 0.71 | 0.95 | 0.86 | 0.687 | 0.888 | 0.702 | 0.311 | 0.752
16 | EBC-1 | 0.91 | 0.852 | 0.755 | 0.79 |  |  |  |  |  |  |  |  | 0.179 | 0.178 | 0.174 | 0.18 | 0.181
17 | NCI-H1395 | 0.993 | 1.13 | 1.08 | 1.07 | 0.39 | 0.383 | 0.426 | 0.389 | 0.724 | 0.675 | 0.564 | 1.1 |  |  |  |  | 
18 | PC-14 | 1.01 | 0.92 | 0.995 | 0.934 | 0.414 | 0.367 | 0.351 | 0.457 | 0.815 | 0.96 | 0.886 | 0.723 | 0.9 | 0.946 | 0.898 | 0.826 | 0.815
19 | NCI-H522 |  |  |  |  | 0.857 | 0.863 | 0.877 | 0.637 | 0.899 | 0.954 | 0.759 | 0.873 |  |  |  |  | 
20 | HOP-62 | 1.13 | 0.919 | 1.1 | 0.644 | 0.403 | 0.598 | 0.769 | 0.478 | 0.639 | 0.576 | 0.508 | 0.637 | 0.892 | 0.991 | 0.934 | 0.948 | 
21 | NCI-H2087 | 1.18 | 1.05 | 0.996 | 1.05 | 1.43 | 1.37 | 1.28 | 1.2 | 0.905 | 0.336 | 0.788 | 0.764 | 0.88 | 1.1 | 0.692 | 0.766 | 0.876
22 | NCI-H441 | 0.797 | 0.687 | 0.809 | 0.583 | 1.19 | 1.35 | 1.48 | 0.997 | 0.786 | 0.867 | 0.806 | 0.887 | 0.861 | 0.803 | 0.689 | 0.721 | 0.681
